According to patent US20200268728A1, “DRUG TARGETING CANCER STEM CELL” (Sumitomo Dainippon Pharma Co., Ltd., priority 2016, published 2020):

Assays:
[1] = system: HCT-116 cells; assay: Test for inhibiting sphere-forming ability of cancer cells (Test Example 1); assay type: cell-based, human; settings: Homo sapiens, 96 h, non-adherent serum-free sphere culture, 4 days, CellTiter-Glo, read-out: IC50 (μmol/L), Sphere IC50 value, concentration for 50% inhibition of cell proliferation
Experimental: The reliable methods established for measuring the self-renewal ability of cells which is one of the CSC's properties include a method for measuring the sphere-forming ability of cancer cells in non-adherent condition in the absence of serum (Cancer Res 65, 5506-5511 (2005)). HCT-116 cells were available from the American Type Culture Collection (ATCC). HCT-116 cells were cultured at 37° C. and 5% CO2 using the McCoy's 5a medium containing 10% fetal bovine serum (FBS), 100 U/ml penicillin, and 100 μg/ml streptomycin. HCT-116 cells were seeded in a 384 Well Black Clear Bottom Ultra-Low Attachment Microplate (Corning Cat. No. 3827) in an amount of 350-800 cells/well using the DMEM/F12 medium containing 2% B27 supplement (GIBCO), 20 ng/mL epidermal growth factor (EGF) (peprotech), 10 ng/mL basic fibroblast growth factor (bFGF) (peprotech), 5 μg/mL insulin (Sigma), and 1% penicillin/streptomycin. The test compounds were added into each well to adjust the final concentration of DMSO to 0.1%, and the cells were cultured for 4 days. The number of viable cells in each well was then measured with CellTiter-Glo® Luminescent Cell Viability Assay (Promega) to calculate the concentration of each test compound for 50% inhibition of cell proliferation (Sphere IC50 value; μmol/L).
The experiment of Test Example 1 was performed for the compounds of each Example.

[2] = system: A549; assay: Sphere-forming ability of cultured cancer cell lines (Test Example 10); assay type: cell-based; settings: Homo sapiens, 96 h; A549 lung cancer cell line, 4 days
Experimental: (§1) The colon cancer cell lines SW480, DLD1, HCT15, HT29, SW948, LS174T, LS411N, SW620, LoVo, HCT116, Colo205, and Hs698T, the pancreatic cancer cell lines MiaPaca2, HPAFII, Capan2, and Panc1, the head and neck cancer cell line FaDu, the breast cancer cell lines HCC1954 and T47D, the bladder cancer cell line SW780, the liver cancer cell line HepG2, the neuroblastoma cell lines U87MG and U251, the lung cancer cell lines H460, H1437, and A549, the prostate cancer cell lines DU145 and PC3, the soft tissue tumor cell line HT1080, the testicular cancer cell line NTERA2, and the ovarian cancer cell line SKOV3 was suspended in the sphere formation medium (DMEM-F12 medium of Test Example 3 was used), and seeded in a 384-well plate with Ultra-Low Attachment surface (Corning) in an amount of 5×10^3-10×10^3 cells/well. The compound of Example 24 was then added into each well to adjust the final concentration to 10-10000 nmol/L. The plate was cultured at 37° C. and 5% carbon dioxide in an incubator for 4 days. After the culture, CellTiterGlo (Promega) was added into all of the wells, and the plate was allowed to stand at room temperature for 10 minutes to measure the intensity of luminescence of each well. The concentrations of each test compound for 50% inhibition of cell proliferation to the cell lines (Sphere IC50 value; μmol/L) was calculated from the measured intensity of luminescence. When each gene mutation in Table is reported, the mutation is represented by “+” (gene mutation information is cited from the ATCC website (https://www.atcc.org/en/Products/Cells_and_Microorganisms/Cell_Lines/Cell_lines_by_genetic_mutation.aspx), Cancer Cell Line Encyclopedia (https://portals.broadinstitute.org/ccle_legacy/home), Proc. Natl. Acad. Sci. USA 94 (1997) 10330-10334).

[3] = system: COLO 205; assay: as above; assay type: cell-based; settings: Homo sapiens, 96 h; COLO 205 colon cancer cell line, 4 days
Experimental: as §1

[4] = system: Capan-2; assay: as above; assay type: cell-based; settings: Homo sapiens, 96 h; Capan-2 pancreatic cancer cell line, 4 days
Experimental: as §1

[5] = system: FaDu; assay: as above; assay type: cell-based; settings: Homo sapiens, 96 h; FaDu head and neck cancer cell line, 4 days
Experimental: as §1

[6] = system: HCC1954; assay: as above; assay type: cell-based; settings: Homo sapiens, 96 h; HCC1954 breast cancer cell line, 4 days
Experimental: as §1

[7] = system: HCT-15; assay: as above; assay type: cell-based; settings: Homo sapiens, 96 h; HCT-15 colon cancer cell line, 4 days
Experimental: as §1

[8] = system: HPAF-II; assay: as above; assay type: cell-based; settings: Homo sapiens, 96 h; HPAF-II pancreatic cancer cell line, 4 days
Experimental: as §1

[9] = system: HT-1080; assay: as above; assay type: cell-based; settings: Homo sapiens, 96 h; HT-1080 soft tissue tumor cell line, 4 days
Experimental: as §1

[10] = system: Hep G2; assay: as above; assay type: cell-based; settings: Homo sapiens, HepG2, 96 h; Hep G2 liver cancer cell line, 4 days
Experimental: as §1

[11] = system: Hs 698.T; assay: as above; assay type: cell-based; settings: 96 h; Hs 698.T colon cancer cell line, 4 days
Experimental: as §1

[12] = system: LS 174T; assay: as above; assay type: cell-based; settings: Homo sapiens, LS174T, 96 h; LS 174T colon cancer cell line, 4 days
Experimental: as §1

[13] = system: LS411N; assay: as above; assay type: cell-based; settings: Homo sapiens, LS-411N, 96 h; LS411N colon cancer cell line, 4 days
Experimental: as §1

[14] = system: LoVo; assay: as above; assay type: cell-based; settings: Homo sapiens, 96 h; LoVo colon cancer cell line, 4 days
Experimental: as §1

[15] = system: MIA PaCa-2; assay: as above; assay type: cell-based; settings: Homo sapiens, 96 h; MIA PaCa-2 pancreatic cancer cell line, 4 days
Experimental: as §1

[16] = system: Panc-1; assay: as above; assay type: cell-based; settings: Homo sapiens, 96 h; Panc-1 pancreatic cancer cell line, 4 days
Experimental: as §1

[17] = system: SW480; assay: as above; assay type: cell-based; settings: Homo sapiens, 96 h; SW480 colon cancer cell line, 4 days
Experimental: as §1

[18] = system: SW948; assay: as above; assay type: cell-based; settings: Homo sapiens, 96 h; SW948 colon cancer cell line, 4 days
Experimental: as §1

[19] = system: T-47D; assay: as above; assay type: cell-based; settings: Homo sapiens, T47D, 96 h; T-47D breast cancer cell line, 4 days
Experimental: as §1

[20] = system: U-251; assay: as above; assay type: cell-based; settings: Homo sapiens, 96 h; U-251 neuroblastoma cell line, 4 days
Experimental: as §1

## O=C(Nc1cn(Cc2cc(F)c(F)c(F)c2)cn1)c1cnc(CO)c(C(F)F)c1 [Example 24, 5-(difluoromethyl)-6-(hydroxymethyl)-N-[1-(3,4,5-trifluorobenzyl)-1H-imidazol-4-yl]nicotinamide]
[1]
  IC50: < 0.01 µmol/L
[2]
  IC50: > 10 µM
[3]
  IC50: 0.142 µM
[4]
  IC50: > 10 µM
[5]
  IC50: 0.009 µM
[6]
  IC50: 0.023 µM
[7]
  IC50: 0.008 µM
[8]
  IC50: 0.764 µM
[9]
  IC50: > 10 µM
[10]
  IC50: 0.072 µM
[11]
  IC50: > 10 µM
[12]
  IC50: 0.015 µM
[13]
  IC50: 0.019 µM
[14]
  IC50: 0.028 µM
[15]
  IC50: 0.008 µM
[16]
  IC50: > 10 µM
[17]
  IC50: 0.004 µM
[18]
  IC50: 0.009 µM
[19]
  IC50: 0.046 µM
[20]
  IC50: > 10 µM
